Assay results: ChEMBL document CHEMBL2406941, “Discovery of 'molecular switches' within a GIRK activator scaffold that afford selective GIRK inhibitors” (Bioorg Med Chem Lett, 2013)
Calls of active or inactive are those of the source. The rule behind the calls is not given here.

Legend:
[1] = Inhibition of GIRK (unknown origin); set-up: species or system Homo sapiens
[2] = molecular target: T1, Kir3.1/Kir3.4 (Homo sapiens, UniProt P48544+P48549); experiment: Inhibition of GIRK1/4 (unknown origin); format: protein-complex assay
T1 sequence (P48549 whole entry): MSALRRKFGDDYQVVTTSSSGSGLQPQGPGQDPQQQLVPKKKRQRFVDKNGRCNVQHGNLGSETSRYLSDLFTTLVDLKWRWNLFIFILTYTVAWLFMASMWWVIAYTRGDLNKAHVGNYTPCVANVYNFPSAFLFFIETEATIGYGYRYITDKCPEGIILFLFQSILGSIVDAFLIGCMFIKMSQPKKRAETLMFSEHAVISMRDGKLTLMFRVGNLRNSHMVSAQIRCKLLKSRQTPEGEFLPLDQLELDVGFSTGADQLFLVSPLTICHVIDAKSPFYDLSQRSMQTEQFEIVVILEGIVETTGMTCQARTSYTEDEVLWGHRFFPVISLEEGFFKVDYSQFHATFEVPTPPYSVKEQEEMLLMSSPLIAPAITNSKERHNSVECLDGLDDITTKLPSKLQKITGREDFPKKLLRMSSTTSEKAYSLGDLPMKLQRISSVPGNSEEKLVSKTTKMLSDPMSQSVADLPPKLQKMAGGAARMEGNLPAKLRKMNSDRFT
T1 sequence (P48544 whole entry): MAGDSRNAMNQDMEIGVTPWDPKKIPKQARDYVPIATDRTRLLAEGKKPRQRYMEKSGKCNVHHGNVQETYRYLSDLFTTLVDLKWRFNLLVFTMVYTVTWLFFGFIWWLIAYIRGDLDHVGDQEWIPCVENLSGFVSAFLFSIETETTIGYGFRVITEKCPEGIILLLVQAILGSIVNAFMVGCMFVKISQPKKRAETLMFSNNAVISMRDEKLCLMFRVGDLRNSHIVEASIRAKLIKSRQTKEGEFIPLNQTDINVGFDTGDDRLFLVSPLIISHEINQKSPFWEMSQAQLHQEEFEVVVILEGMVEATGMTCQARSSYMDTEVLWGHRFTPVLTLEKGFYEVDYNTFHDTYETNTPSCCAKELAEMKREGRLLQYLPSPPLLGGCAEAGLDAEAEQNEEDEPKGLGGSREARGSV

[3] = molecular target: T2, Kir3.1/Kir3.2 (Homo sapiens, UniProt P48051+P48549); experiment: Inhibition of GIRK1/2 (unknown origin); format: protein-complex assay
T2 sequence (P48549 whole entry): T1 sequence (P48549 whole entry)
T2 sequence (P48051 whole entry): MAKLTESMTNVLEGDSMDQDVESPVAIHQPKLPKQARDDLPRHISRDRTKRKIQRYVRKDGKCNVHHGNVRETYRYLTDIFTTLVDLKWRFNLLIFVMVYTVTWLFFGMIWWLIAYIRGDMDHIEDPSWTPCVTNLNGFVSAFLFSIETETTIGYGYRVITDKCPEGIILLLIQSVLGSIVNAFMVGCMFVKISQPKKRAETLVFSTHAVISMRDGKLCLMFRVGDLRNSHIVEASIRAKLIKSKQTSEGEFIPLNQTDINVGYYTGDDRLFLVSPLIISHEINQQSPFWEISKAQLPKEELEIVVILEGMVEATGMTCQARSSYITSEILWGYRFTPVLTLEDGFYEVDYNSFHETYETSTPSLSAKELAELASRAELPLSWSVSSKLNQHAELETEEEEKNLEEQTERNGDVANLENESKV

[4] = molecular target: T3, Kir3.1/Kir3.2 (Homo sapiens) (UniProt P48549+P48051); experiment: Inhibition of GIRK1/2 (unknown origin) relative to SCH3320; format: protein-complex assay; set-up: concentration or dose not given beside the values; settings: concentration not given here
[5] = molecular target: T2, Kir3.1/Kir3.2; experiment: Activation of GIRK1/2 (unknown origin); format: protein-complex assay
[6] = molecular target: T4, G protein-activated inward rectifier potassium channel 2 (Homo sapiens) (UniProt P48051); experiment: Activation of GIRK2 (unknown origin)
T4 sequence (whole entry): T2 sequence (P48051 whole entry)

[7] = molecular target: Kir3.2/Kir3.3 (Homo sapiens) (UniProt P48051+Q92806); experiment: Activation of GIRK2/3 (unknown origin); format: protein-complex assay
[8] = molecular target: T1, Kir3.1/Kir3.4; experiment: Activation of GIRK1/4 (unknown origin); format: protein-complex assay
[9] = molecular target: T3, Kir3.1/Kir3.2 (Homo sapiens); experiment: Activation of GIRK1/2 (unknown origin) relative to ML297; format: protein-complex assay
[10] = molecular target: T5, Kir3.1/Kir3.4 (Homo sapiens) (UniProt P48549+P48544); experiment: Activation of GIRK1/4 (unknown origin) relative to ML297; format: protein-complex assay
[11] = molecular target: T5, Kir3.1/Kir3.4 (Homo sapiens); experiment: Inhibition of GIRK1/4 (unknown origin) relative to SCH3320; format: protein-complex assay; set-up: concentration or dose not given beside the values; settings: concentration not given here
[12] = molecular target: T2, Kir3.1/Kir3.2; experiment: Activation of GIRK1/2 (unknown origin) by thallium flux assay; format: protein-complex assay
[13] = molecular target: T5, Kir3.1/Kir3.4 (Homo sapiens); experiment: Activation of GIRK1/4 (unknown origin) relative to control; format: protein-complex assay
[14] = molecular target: T3, Kir3.1/Kir3.2 (Homo sapiens); experiment: Activation of GIRK1/2 (unknown origin) by thallium flux assay relative to control; format: protein-complex assay

| IC50 [2] | IC50 [3] | inhibition [4] | EC50 [5] | Activity [7] | EC50 [8] | Efficacy [9] | inhibition [11] | Compound | other results |
| --- | --- | --- | --- | --- | --- | --- | --- | --- | --- |
| > 30 µM | 0.95 µM | 86% |  |  |  |  |  | CSc1cccc(NC(=O)Nc2cc(C3CC3)nn2-c2ccccc2)c1 |  |
|  |  |  | > 30 µM | inactive |  |  |  | O=C(Nc1ccc(F)c(F)c1)Nc1cc(-c2ccccc2)nn1-c1ccccc1 | Activity [6]: inactive |
| 0.72 µM | 1.9 µM | 51% |  |  |  |  | 69% | O=C(Nc1cccc(Br)c1)Nc1cc(C2CCC2)nn1-c1ccccc1 |  |
| 0.34 µM | 0.63 µM | 76% |  |  |  |  | 72% | O=C(Nc1cccc(Cl)c1)Nc1cc(CC2CC2)nn1-c1ccccc1 |  |
| > 30 µM | 0.85 µM | 80% |  |  |  |  |  | Cc1cccc(NC(=O)Nc2cc(C3CC3)nn2-c2ccccc2)c1 |  |
| 0.18 µM | 0.45 µM | 75% |  |  |  |  | 72% | O=C(Nc1cccc(F)c1)Nc1cc(CC2CC2)nn1-c1ccccc1 |  |
| 0.27 µM | 0.64 µM | 80% |  |  |  |  | 54% | O=C(Nc1ccc(F)cc1)Nc1cc(CC2CC2)nn1-c1ccccc1 |  |
| 1.8 µM | 3.9 µM | 100% |  |  |  |  | 62% | Cc1ccc(NC(=O)Nc2cc(C(C)C)nn2-c2ccccc2)cc1 |  |
| 1.4 µM | 2 µM | 136% |  | inactive |  |  | 150% | CC(C)c1cc(NC(=O)Nc2ccc(F)c(F)c2)n(-c2ccccc2)n1 | Activity [6]: inactive |
| 0.48 µM | 1.4 µM | 64% |  |  |  |  | 89% | O=C(Nc1cccc(Cl)c1)Nc1cc(C2CCC2)nn1-c1ccccc1 |  |
|  |  |  |  | inactive | 1.8 µM |  |  | Cc1cc(NC(=O)Nc2ccc(F)c(F)c2)n(-c2ccccc2)n1 | EC50 [12]: 0.16 µM; Efficacy [13]: 93%; Efficacy [14]: 194% |
|  |  |  |  | inactive | 0.69 µM |  |  | Cc1cc(NC(=O)Nc2ccccc2)n(-c2ccccc2)n1 | EC50 [12]: 1.4 µM; Efficacy [13]: 93%; Efficacy [14]: 97% |
| 0.78 µM | 2.1 µM | 77% |  |  |  |  | 70% | CC(C)c1cc(NC(=O)Nc2cccc(F)c2)n(-c2ccccc2)n1 |  |
| > 30 µM | 1.2 µM | 60% |  |  |  |  |  | O=C(Nc1cccc(F)c1)Nc1cc(C2CC2)nn1-c1ccccc1 |  |
| 0.69 µM | 1.3 µM | 65% |  |  |  |  | 84% | O=C(Nc1cccc(C(F)(F)F)c1)Nc1cc(C2CCC2)nn1-c1ccccc1 |  |
| 1.3 µM | 2.1 µM | 62% |  |  |  |  | 100% | CC(C)c1cc(NC(=O)Nc2cccc(C(F)(F)F)c2)n(-c2ccccc2)n1 |  |
| 0.25 µM | 0.52 µM | 83% |  |  |  |  | 47% | Cc1cccc(NC(=O)Nc2cc(CC3CC3)nn2-c2ccccc2)c1 |  |
| 0.85 µM | 2.6 µM | 93% |  |  |  |  | 67% | Cc1cccc(NC(=O)Nc2cc(C(C)C)nn2-c2ccccc2)c1 |  |
| 0.25 µM | 0.54 µM | 88% |  |  |  |  | 45% | O=C(Nc1cccc(C(F)(F)F)c1)Nc1cc(CC2CC2)nn1-c1ccccc1 |  |
|  |  |  | 1.4 µM |  | 0.72 µM | 37% |  | O=C(Nc1cccc(Cl)c1)Nc1cc(C2CC2)nn1-c1ccccc1 | Efficacy [10]: 39% |

The remaining lines, values behind:

| Compound | IC50 [2] | IC50 [3] | inhibition [4] | EC50 [5] | Activity [7] | EC50 [8] | Efficacy [9] | inhibition [11] | other results |
| --- | --- | --- | --- | --- | --- | --- | --- | --- | --- |
| CN1CCc2cc(Cl)c(O)cc2[C@@H](c2ccccc2)C1 [SCH-23390] |  |  |  |  |  |  |  |  | IC50 [1]: 4 µM |
| Cc1ccc(NC(=O)Nc2cc(C3CC3)nn2Cc2ccccc2)cc1 |  |  |  | 0.57 µM |  | 0.92 µM | 35% |  | Efficacy [10]: 46% |
| O=C(Nc1ccc(F)c(F)c1)Nc1cc(C(F)(F)F)nn1-c1ccccc1 |  |  |  |  | inactive |  |  |  | Activity [6]: inactive |
| O=C(Nc1ccc(F)c(F)c1)Nc1cc(C2CC2)nn1-c1ccccc1 |  |  |  | 0.41 µM | inactive |  | 32% |  | Activity [6]: inactive |
| Cc1cc(NC(=O)Nc2ccc(F)c(F)c2)n(-c2ccc(F)cc2)n1 |  |  |  | 0.19 µM | inactive | 0.54 µM | 78% |  | Activity [6]: inactive; Efficacy [10]: 57% |
| O=C(Nc1ccc(F)cc1)Nc1cc(C2CC2)nn1Cc1ccccc1 |  |  |  | 0.35 µM |  | 0.57 µM | 57% |  | Efficacy [10]: 90% |
| O=C(Nc1cccc(Br)c1)Nc1cc(C2CC2)nn1Cc1ccccc1 |  |  |  | 0.38 µM |  | 0.79 µM | 44% |  | Efficacy [10]: 65% |
| CC(C)c1cc(NC(=O)Nc2cccc(C(F)(F)F)c2)n(Cc2ccccc2)n1 |  |  |  | 1.7 µM |  | 3.5 µM | 38% |  | Efficacy [10]: 10% |
| O=C(Nc1ccc(F)c(F)c1)Nc1cc(C2CCC2)nn1-c1ccccc1 |  |  |  |  | inactive |  |  |  | Activity [6]: inactive |
| O=C(Nc1cccc(F)c1)Nc1cc(C2CC2)nn1Cc1ccccc1 |  |  |  | 0.53 µM |  | 0.78 µM | 46% |  | Efficacy [10]: 85% |
| Cc1cc(NC(=O)Nc2ccc(F)c(F)c2)n(-c2ccncc2)n1 |  |  |  | > 10 µM | inactive | > 30 µM | 88% |  | Activity [6]: inactive |
| O=C(Nc1cccc(C(F)(F)F)c1)Nc1cc(C2CC2)nn1Cc1ccccc1 |  |  |  | 0.34 µM |  | 0.65 µM | 35% |  | Efficacy [10]: 39% |
| Cc1cc(NC(=O)Nc2ccc(F)c(F)c2)n(-c2ccccn2)n1 |  |  |  | > 10 µM | inactive | > 30 µM | 78% |  | Activity [6]: inactive |
| CC(C)c1cc(NC(=O)Nc2cccc(Cl)c2)n(Cc2ccccc2)n1 |  |  |  | 0.47 µM |  | 1.7 µM | 35% |  | Efficacy [10]: 23% |
| O=C(Nc1ccc(F)c(Cl)c1)Nc1cc(C2CCC2)nn1-c1ccccc1 | 0.61 µM | 1.9 µM | 70% |  |  |  |  | 69% |  |
| Cc1cc(NC(=O)Nc2ccc(F)c(F)c2)n(CC(F)(F)F)n1 |  |  |  | 0.46 µM | inactive | 1.3 µM | 96% |  | Activity [6]: inactive; Efficacy [10]: 103% |
| O=C(Nc1ccc(F)c(F)c1)Nc1cc(C2CCCC2)nn1-c1ccccc1 | 4.1 µM | 5.1 µM | 85% |  | inactive |  |  | 88% | Activity [6]: inactive |
| O=C(Nc1ccc(F)c(Cl)c1)Nc1cc(C2CC2)nn1Cc1ccccc1 |  |  |  | 0.21 µM |  | 0.32 µM | 47% |  | Efficacy [10]: 83% |
| O=C(Nc1ccc(F)c(F)c1)Nc1cc(CC2CC2)nn1-c1ccccc1 | 0.56 µM | 0.65 µM | 95% |  | inactive |  |  | 67% | Activity [6]: inactive |
| O=C(Nc1ccc(F)c(Cl)c1)Nc1cc(CC2CC2)nn1-c1ccccc1 | 0.31 µM | 0.81 µM | 87% |  |  |  |  | 70% |  |
| Cc1cc(NC(=O)Nc2ccc(F)c(F)c2)n(Cc2ccccc2)n1 |  |  |  | 0.07 µM | inactive | 0.11 µM | 87% |  | Activity [6]: inactive; Efficacy [10]: 99% |
